“Also recorded” adds a separate entry of the source.
Key:
[1] = test system: oligodendrocytes; test: Rescue of purified oligodendrocytes from apoptosis induced by switch to DMEM alone (trophic factor withdrawal); conditions: for enhancement of survival factor (IFN-γ) activity compared with NAC: co-exposure with survival factor
Description: After 3 days of growth in DMEM-BS, the resulting cultures of pure oligodendrocytes were switched to DMEM alone, a condition that induces apoptosis unless cells are exposed to appropriate growth factors.
Cells were then switched to DMEM alone, supplemented with 10, 50 or 500 u/ml of interferon-γ, and the number of surviving cells present after a further three days was determined by MTT staining.
After 3 days in DMEM-BS, the resulting cultures of pure oligodendrocyte were switched to DMEM alone to which was added progesterone+/−1 mM NAC (FIG. 9).
After 3 days in DMEM-BS, the resulting cultures of pure oligodendrocytes were switched to DMEM alone to which was added 10 μM Trolox+/−1 mM NAC (FIG. 10).
After 3 days in DMEM-BS, the resulting cultures of pure oligodendrocyte were switched to DMEM alone to which was added (a) progesterone (63 ug/ml)+NAC (1 mM)+trolox (100 uM)+Vitamin C (10 uM) (“combination”) or (b) CNTF (10 ng/ml)+IGF-1 (50 ng/ml)+NT-3 (5 ng/ml) (“combination”).
In all conditions, the 100% value corresponds to the cell survival seen in cultures of oligodendrocyte not subjected to trophic factor withdrawal.
After 3 days in DMEM-BS, the resulting cultures of pure oligodendrocytes were switched to DMEM alone to which was added progesterone.
Purified oligodendrocytes were generated and grown as in previous examples. 3 days after plating, cells were switched either directly to the indicated conditions (open bars) or were first switched to DMEM alone for 24 hr before the indicated factors were added in an attempt to rescue the cells (black bars). Cells were counted 3 days after switch to the indicated conditions.

[2] = test system: 0-2A progenitor cells; test: PDGF-induced division of purified 0-2A progenitor cells (BrdU incorporation, total cell number); format: cell-based, rat
Description: The effect of NAC on generation of 0-2A progenitors and oligodendrocytes was examined in cultures of purified 0-2A progenitors (prepared as in Example IA) exposed to platelet-derived growth factor (PDGF), the best-characterized mitogen for 0-2A progenitor cells.
NAC enhances the division-inducing effects of platelet-derived growth factor (PDGF). Purified 0-2A progenitor cells were plated on PLL-coated coverslips at a density of 3,000 cells per cover slip and exposed to PDGF (a known mitogen for these cells) at the indicated concentrations. In addition, cells were exposed to NAC at a variety of concentrations; the effects of 1 mM NAC are illustrated.
As shown previously, induction of DNA synthesis and increases in cell number by PDGF was dose-dependent.

[3] = test system: embryonic sensory neurons; test: Rescue of embryonic sensory neurons from apoptosis by NGF+NAC; format: cell-based; conditions: NAC + 1 or 10 ng/ml NGF on days 1 and 2, labeled on day 3; depending on NAC and NGF concentrations
Description: Cultures of embryonic sensory neurons were generated according to methods described in Groves et al., Dev. Biol., 159:87-104, (1993), the contents of which are incorporated herein by reference. The cells were exposed to sub-optimal doses of NGF. As shown in FIG. 4 cultures exposed to NAC and either 1 or 10 ng/ml NGF on days 1 and 2 and labeled on day 3 contained 300-1000% more neurons than those exposed to NGF alone, depending upon the concentrations of NAC and NGF applied.
Neurons were defined by morphology and by labeling with the TUJI antibody against β-tubuli (Groves, A. K., et al., Dev. Biol., 159:87-104 (1993); Moody, S. Q., et al., J. Comp. Neurol., 279:567-580 (1989)) cultures were in DMEM-BS. There was no BrdU labeling of neurons, nor was there any correlation between the extent of BrdU labeling in non-neuronal populations and the number of neurons present (data not shown). Analysis of DNA synthesis by BrdU incorporation (Gatzner, H. G., et al., Science, 318:474-475 (1982) confirmed that this increase in neuronal number was not due to cell division, strongly implicating differential cell death as the reason for the difference.
Values shown are means+/−SD for quadruplicate coverslips from the one of four experiments, all of which yielded similar results.

[4] = test system: embryonic kidney cells; test: EGF-induced proliferation of embryonic kidney cells; format: cell-based, rat; conditions: all EGF concentrations examined
Description: FIG. 7 was analyzed as for FIG. 1(B), but used embryonic kidney cells. The cells grown in the 96-well trays were derived by dissociation of kidney rudiments from 11 days embryonic rats. Cells were grown in DMEM-BDS+/−epidermal growth factor (at the concentrations indicated)+/−NAC.

[5] = test system: spinal ganglion neurons; test: Neurite outgrowth of spinal ganglion neurons on laminin or L1; format: cell-based, rat; conditions: 24 hours, NGF added
Excerpt: To determine whether compounds that are able to raise intracellular thiol levels are able to enhance the efficacy of yet a different group of cellular signaling systems, we examined the effects of NAC supplementation on the promotion of neurite outgrowth by laminin and by L1. We first determined suboptimal concentrations for the effect of these cellular adhesion molecules, which were attached to tissue culture plastic surfaces in two different manners. Laminin was directly attached to the tissue culture surface with a cross-linking chemistry that preserves the structure of extracellular matrix molecules. L1 was attached as a dimer chimera, cross-linked by an Fc region from a human immunoglobulin molecule, by first adsorbing to the plastic surface an antibody directed against the human immunoglobulin Fc domain, followed by absorption of the L1 dimer to this surface. To promote neuronal survival, nerve growth factor (NGF), the survival factor of the spinal ganglion neurons used in this experiment, was also added at different concentrations. […] After 24 hours cultures were stained with an antibody to beta-III-tubulin and neurite length per neuron was measured.

## O=C1O[C@H]([C@@H](O)CO)C(O)=C1O [Vitamin C]
[1]; 10 uM Vit C alone, Example I(J), DMEM alone, 3 days
  Survival (as % of DMEM-BS control): 2 ± 3%
[1]; VitC 10 uM alone, Example I(K)
  Survival (as % of DMEM-BS control): 1 ± 1%
[1]
  enhancement of survival factor (IFN-γ) activity compared with NAC: similar, but lesser effects

## CC(=O)N[C@@H](CS)C(=O)O [NAC, N-acetylcysteine]
[1]; 1 mM NAC + 10 μM Trolox, DMEM alone, 3 days
  extent of survival, NAC in combination with Trolox: highly significant increases (**)
[1]; 1 mM NAC + Vitamin C, DMEM alone, 3 days
  extent of survival, NAC in combination with Vitamin C: highly significant increases (**)
[1]; 1 mM NAC + progesterone, DMEM alone, 3 days, no RTK/RawTK agonists
  extent of survival, NAC in combination with progesterone: highly significant increases (**)
[1]; 1 mM NAC + various concentrations of CNTF, DMEM alone, 3 days
  extent of survival with CNTF in presence of NAC versus CNTF by itself: significant increases
[1]; 1 mM NAC + various concentrations of IGF-1, DMEM alone, 3 days
  extent of survival with IGF-1 in presence of NAC versus IGF-1 by itself: significant increases
[1]; 1 mM NAC alone, DMEM alone, 3 days
  cell survival with NAC alone: did not promote oligodendrocyte survival; also recorded: did not promote cell survival
[1]; Example I-(L), counted 3 days after switch
  oligodendrocyte survival, cells switched directly to the indicated conditions: not effective at supporting oligodendrocyte survival
[1]; NAC 1 mM alone
  Survival (as % of DMEM-BS control): 2 ± 1%
[1]; NAC 1 mM together with IFN-γ
  extent of survival obtained with IFN-γ when NAC is applied together: dramatically enhanced the extent of survival obtained
[2]; 1 mM NAC + PDGF
  ability of PDGF to induce DNA synthesis (BrdU incorporation) on addition of NAC: marked increase
  total number of cells generated by PDGF-induced cell division on addition of NAC: marked increase
[2]; NAC alone, BrdU incorporation and total cell number
  induction of cell division by NAC alone: had no effect on the induction of cell division
[3]
  more neurons than with NGF alone: 300-1000%
[4]
  effect of NAC on EGF-induced proliferation (cell number): enhanced the proliferative effects of EGF
[5]; L1 2 micrograms/ml plating concentration
  neurite length on L1 with NAC versus without NAC: enhanced
[5]; laminin 2 micrograms/ml plating concentration
  neurite length on laminin with NAC versus without NAC: enhanced

## PDGF
[2]; PDGF at the indicated concentrations
  induction of DNA synthesis and increases in cell number by PDGF: dose-dependent

## IGF-I: oligodendrocyte survival factor, growth factor
[1]; IGF-I 0.1 ng/ml, DMEM alone, 3 days
  Survival (as % of DMEM-BS control): 1 ± 1%

## Cc1c(C)c2c(c(C)c1O)CCC(C)(C(=O)O)O2 (centres unmarked) [Trolox]
[1]; Trolox 100 uM alone
  Survival (as % of DMEM-BS control): 6 ± 5%
[1]
  enhancement of survival factor (IFN-γ) activity compared with NAC: similar, but lesser effects

## CC(=O)[C@H]1CC[C@H]2[C@@H]3CCC4=CC(=O)CC[C@]4(C)[C@H]3CC[C@]12C [Progesterone, progesterone]
[1]; Progesterone 6.3 ng/ml alone
  Survival (as % of DMEM-BS control): 4 ± 1%
[1]; Progesterone .63 ng/ml alone
  Survival (as % of DMEM-BS control): 0%

B1: interferon-γ: interferon-gamma, survival factor for oligodendrocytes (protein, UniProt P01579 24-161, looked up)
Interferon gamma: QDPYVKEAENLKKYFNAGHSDVADNGTLFLGILKNWKEESDRKIMQSQIVSFYFKLFKNFKDDQSIQKSVETIKEDMNVKFFNSNKKKRDDFEKLTNYSVTDLNVQRKAIHELIQVMAELSPAAKTGKRKRSQMLFRG
[1]; 10, 50 or 500 u/ml, DMEM alone, 3 days, MTT staining
  oligodendrocyte survival with interferon-γ: promoted oligodendrocyte survival in a dose-dependent manner

From patent US20020058628A1, “Antioxidants and intracellular glutathione raising agents for therapeutic treatments” (priority 1998, published 2002)
